The values below come from PMC13376213, “Systematic discovery of motif-based interactions of the auxiliary domains of USP family deubiquitinases” (Nature Communications, 2026).

Broadly, the Kd is a measure of binding affinity in units of concentration.

Where two headings read alike, the source gives them in different places. Ends that are not written are not given here. Where only a bound is given, the exact number is not on record here.

One test addresses T1, USP33 zf-UBP domain (Homo sapiens, UniProt Q8TEY7).
T1 construct: USP33_UBP; Q8TEY7; zf-UBP; 36; 130; 6xHis-GST (N, cleaved yes); made in house; host or cells: Escherichia coli BL21-Gold (DE3)
T1 sequence (Q8TEY7 with tags, fused parts or gaps): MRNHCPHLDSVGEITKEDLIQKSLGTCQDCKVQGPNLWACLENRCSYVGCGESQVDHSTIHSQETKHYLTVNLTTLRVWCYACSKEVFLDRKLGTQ
Put plainly: FP-monitored affinity measurements, USP33 zf-UBP. The format is binding.

The next test addresses T2, USP20 zf-UBP domain (Homo sapiens, UniProt Q9Y2K6).
T2 construct: USP20_UBP; Q9Y2K6; zf-UBP; 99; 6xHis-GST (N, cleaved yes); made in house; host or cells: Escherichia coli BL21-Gold (DE3)
Put plainly: FP-monitored affinity measurements, USP20 zf-UBP. Format: binding.

Another test has as its target T3, USP11 DUSP-UBL domain (Homo sapiens, UniProt P51784).
T3 construct: USP11_UBL; P51784; UBL; 6xHis-GST (N, cleaved yes); made in house; host or cells: Escherichia coli BL21-Gold (DE3)
As to the kind of experiment: FP-based affinity measurements, USP11 DUSP-UBL. Particulars: competitive FP; technical triplicates; read-out: KD, USP11 DUSP-UBL, unlabeled peptide (competitive binding). Format: binding. As to the method:
(§1) Proteins were expressed in Escherichia coli (E.coli) BL21-Gold (DE3) bacteria. The cDNAs encoding N-terminal 6-histidine-glutathione S-transferase tagged (6xHis-GST), 6xHis-tagged or GST-tagged protein domains in pETM33, pETM11, pGEX6P1 expression vectors respectively, were obtained from Genescript or kindly provided by MRC-PPU (Suppl. Data 1) The bacteria were transformed with the plasmid and grew at 37 °C in 2YT (5 g/L NaCl, 16 g/L tryptone and 10 g/L yeast extract) supplemented with Kanamycin (30 μg/mL) until reaching an OD600 of 0.7. Protein expression was induced with 0.3 mM isopropyl β-D-1 thiogalactopyranoside (IPTG) for 18 h at 18 °C while shaking. For zinc-finger domains, 50 μM of ZnSO4 was added during expression. The bacterial cultures were pelleted for 15 minutes at 4000 x g at 4 °C and stored at −20 °C until purification. The pellets were resuspended in lysis buffer (1× phosphate-buffered saline (PBS), 0.5 % Triton-X, 5 mM MgCl2, 10 μg/mL lysozyme, cOmplete^TM EDTA-free protease inhibitor cocktail (Roche), 10 μg/mL DNAseI) and incubated for 1 h shaking at 4 °C. […] The supernatant was incubated with glutathione (GSH) Sepharose (Cytiva) or Ni2+ Sepharose (Cytiva) for 1 h at 4 °C while shaking. The beads with the bound protein were washed with 1x PBS and eluted with 10 mM reduced glutathione in 50 mM Tris pH 8.0. For fluorescence polarization experiments, the proteins were not eluted from the beads, and the 6xHis-GST tag was cleaved overnight on GSH Sepharose beads at 4 °C while shaking with PreScission Protease in cleavage buffer (50 mM Tris pH 7.5, 150 mM NaCl, 1 mM DTT). The sample containing the cleaved domain was separated from the tag and protease and buffer-exchanged to 50 mM sodium phosphate buffer pH 7.4 with 1 mM DTT using a PD-10 desalting column (Cytiva). The purity and size of the proteins were analyzed by SDS-PAGE electrophoresis.
The measurements were performed at room temperature in a non-binding black half area 96-well plate (Corning) with a total volume of 50 μL per well. Peptides were obtained from GeneCust (France) with >95% purity. FITC-labeled peptides (N-terminally FITC-labeled without spacer and C-terminally amidated) were dissolved in dimethyl sulfoxide (DMSO), and unlabeled peptides (N-terminally acetylated and C-terminally amidated) were dissolved in 50 mM phosphate buffer pH 7.4. Saturation measurements were performed using a serial dilution of the protein domains in phosphate buffer (25 μL) and the addition of 10 nM FITC-labeled peptide (in phosphate buffer supplemented with 2 mM DTT) (25 μL). […] All measurements were performed in three technical replicates. The data were analyzed using GraphPad Prism version 9.2.0 for MacOS (GraphPad Software, San Diego, California USA, www.graphpad.com). […]

The next test has as its target T4, USP22 zf-UBP domain (Homo sapiens, UniProt Q9UPT9).
T4 construct: USP22_zf-UBP; Q9UPT9; zf-UBP; 37; 130; 6xHis-GST (N, cleaved yes); made in house; host or cells: Escherichia coli BL21-Gold (DE3)
T4 sequence (Q9UPT9 37-130): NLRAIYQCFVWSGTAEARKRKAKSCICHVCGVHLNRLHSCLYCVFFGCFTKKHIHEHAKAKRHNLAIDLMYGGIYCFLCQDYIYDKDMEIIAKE
As to the kind of experiment: FP-monitored affinity measurements, USP22 zf-UBP. The format is binding. Particulars: USP22_zf-UBP; FP displacement by unlabelled peptide. As to the method: as §1
The measurements were performed at room temperature in a non-binding black half area 96-well plate (Corning) with a total volume of 50 μL per well. Peptides were obtained from GeneCust (France) with >95% purity. FITC-labeled peptides (N-terminally FITC-labeled without spacer and C-terminally amidated) were dissolved in dimethyl sulfoxide (DMSO), and unlabeled peptides (N-terminally acetylated and C-terminally amidated) were dissolved in 50 mM phosphate buffer pH 7.4. Saturation measurements were performed using a serial dilution of the protein domains in phosphate buffer (25 μL) and the addition of 10 nM FITC-labeled peptide (in phosphate buffer supplemented with 2 mM DTT) (25 μL). […] All measurements were performed in three technical replicates. The data were analyzed using GraphPad Prism version 9.2.0 for MacOS (GraphPad Software, San Diego, California USA, www.graphpad.com). The saturation curves were fitted to the quadratic equation, and the displacement curves were fitted to a sigmoidal dose-response equation as described previously.

Another test relates to FLAG-USP33. Put plainly: IP-MS of FLAG-USP33 and variants vs empty vector. The format is cell-based, human. Conditions: IP-MS. As to the method:
For transfection, 1x10^6 HEK293 cells were seeded in 10 cm dishes with DMEM, 10% FBS, 1% L-G (without antibiotic) medium, incubated at 37 °C, with 5 % CO2 for 24 h. Cells were transfected with a transfection mix containing […] of Opti-MEM (Thermo Fisher Scientific), 20 μL of PEI stock (1 mg/mL) and […] of the desired cDNA. For co-transfection, 2.5 μg of DNA of each plasmid was used. The mix was vortexed for 15 s and incubated at room temperature for 15–20 min. The transfection mix was added to the dish and gently mixed. Plates were incubated at 37 °C for 36–48 h before harvesting. For USP33 constructs, 5 μM Bortezomib (proteasome inhibitor) was added 4 hours before harvesting the cells.
FLAG fusion proteins were immunoprecipitated from HEK293 cells transfected with plasmids encoding the protein of interest using the anti-FLAG M2 affinity gel from Sigma-Aldrich. Cell pellets were lysed with 100–200 μL/per dish lysis buffer (Pierce RIPA buffer, 1X protease inhibitor (Roche), 50 unit/μL of Benzonase Nuclease) rotating at 4 °C for 30–45 min. […] The cell lysate was clarified by centrifugation at 17,000 x g, at 4 °C for 12 min, and the supernatant was transferred to a clean, pre-chilled low-binding Eppendorf tube. […] The IP samples were centrifuged at 6500 x g at 4 °C for 30 s. The supernatant containing the unbound proteins was transferred to a clean tube. The resin was washed three times with 500 μL of TBS, centrifuged at 6500 x g at 4 °C for 30 s. The bound FLAG fusion protein was eluted with 100 μL of 150 ng/μL 3X FLAG peptide (Sigma) in TBS and incubated in the cold room for 1 h or overnight. The tube was centrifuged at 6500 x g at 4 °C for 30 s; the eluted proteins were transferred to a clean tube. The eluted proteins were prepared for analysis by western blot or Mass Spectrometry.
Immunoprecipitation (IP) was carried out as described above; four technical replicates of each IP condition were performed, and the empty vector was used as a negative control. The eluted protein was processed following the Strap-micro protocol (Protifi). The IP elution containing 1–100 μg protein was 1:1 mixed with 2X lysis buffer (10% SDS, 100 mM TEAB pH 8.5). […] Samples were vortexed, mixed with 165 μL of 100 mM TEAB in 90% methanol, and passed through an S-Trap micro column at 4000 g for 30 s to trap the proteins. The column was washed with 150 μL of 100 mM TEAB in 90% methanol (at 4,000 x g for 30 seconds) three times. The S-Trap column was centrifuged again and transferred to a clean 2 mL tube for digestion with 20 μL of digestion buffer (1 μg trypsin per 10 μg sample in 50 mM TEAB), at 37 °C overnight in a thermomixer without shaking. The digested peptides were eluted with […] of 50 mM TEAB in water, […] of 0.2 % formic acid in water, and […] of 50 % acetonitrile in water, centrifuging at 4000 x g for 1 min each time. The three elutions were pooled in a low-binding tube, placed on dry ice until frozen, dried in a SpeedVac vacuum (Thermo Scientific), and proceeded with the LCMS analysis.
Eluted peptides were resuspended in water supplemented with 0.015% dodecyl maltoside and 0.1% formic acid and were injected on a Vanquish Neo UHPLC System operating in trap and elute mode coupled to an Orbitrap Astral Mass Spectrometer (Thermo Fisher Scientific). […] Eluted peptides were analyzed using data-independent acquisition mode on the mass spectrometer.
Peptides were searched against the Uniprot Swissprot Human database (released on 02/01/2023) supplemented with the USP20 and USP33 mutants using DiaNN (v1.9.0)[62] operating in library-free mode. Data filtering and statistical analysis were carried out in Python (v3.9.0) using the packages pandas, numpy, sklearn, scipy, rpy2, Plotnine, and Plotly and R (v4.4.3) using the package limma.
Protein groups identified with a single peptide or quantified in fewer than three replicates in at least 1 condition were filtered out. […]

[1] abbreviates: USP33_UBP, FP displacement by unlabelled peptide, read-out: KD.
Where [2] appears, read: USP20_UBP, FP displacement by unlabelled peptide, read-out: KD.
The mark [3] stands for this setting: FP-monitored affinity measurement (Supplementary Fig. 4D).

T2 sequence (Q9Y2K6 4-99): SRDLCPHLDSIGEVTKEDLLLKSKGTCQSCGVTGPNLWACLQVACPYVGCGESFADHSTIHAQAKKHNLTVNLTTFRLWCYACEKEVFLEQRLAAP
T3 sequence (P51784 67-288): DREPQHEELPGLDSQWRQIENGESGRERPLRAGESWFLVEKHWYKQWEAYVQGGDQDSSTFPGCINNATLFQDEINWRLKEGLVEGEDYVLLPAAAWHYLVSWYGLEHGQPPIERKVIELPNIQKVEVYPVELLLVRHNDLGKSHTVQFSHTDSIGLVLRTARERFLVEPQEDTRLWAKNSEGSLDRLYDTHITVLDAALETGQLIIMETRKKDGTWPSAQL
Description for USP20 zf-UBP domain: (§2) The measurements were performed at room temperature in a non-binding black half area 96-well plate (Corning) with a total volume of 50 μL per well. […] All measurements were performed in three technical replicates. […] The saturation curves were fitted to the quadratic equation, and the displacement curves were fitted to a sigmoidal dose-response equation as described previously[68].
Description for USP33 zf-UBP domain: as §2

With YTNSSGKMALNSPQPG [IRAG1], the equilibrium dissociation constant (Kd) was found to be 7.86 µM at USP33 zf-UBP domain (setting [1]) and 9.02 µM on USP20 zf-UBP domain (setting [2]).
As for SAVTYPDWIGQSYSEV [ORAI1_48-63], at USP11 DUSP-UBL domain, the Kd is greater than 200 µM.
As for “Ac-VPSLDDFAGQSWSSWVE-NH2 [ATXN7L2_18-34]”, on USP22 zf-UBP domain, the Kd was determined as 19.3 µM.
Regarding “ubiquitin C-terminus: ubiquitin C-terminal peptide (YLRLRGG) [reference compound]”, in the test with USP33 zf-UBP domain (setting [3]), the “binding of the ubiquitin C-terminus to USP33 zf-UBP” value is reported as “do not bind the ubiquitin C-terminus with measurable affinity”. The “binding of the ubiquitin C-terminus to USP20 zf-UBP” value in the test with USP20 zf-UBP domain (setting [3]) was “do not bind the ubiquitin C-terminus with measurable affinity”. The Kd with USP20 zf-UBP domain (setting [2]) is greater than 50 µM.
Take Ac-YEKVKRRLDLDID-NH2 [CCP110]: the Kd on USP33 zf-UBP domain (setting [1]) is roughly 260 µM; at USP20 zf-UBP domain (setting [2]) it was roughly 505 µM.
As for VWA8, the log2_FC with FLAG-USP33 (FLAG-USP33-ΔDUSP2 vs EV, comparison bh_2 Sample_Limma_ImpMedInt_USP33_DUSP2_domain/EV) was 2.1493; in the test with FLAG-USP33 (FLAG-USP33-ΔUBP vs EV, comparison bh_2 Sample_Limma_ImpMedInt_USP33_UBP_domain/EV), 2.322.
With YPFQPGRMALESQSPG [USP19], the values for the Kd at USP33 zf-UBP domain (setting [1]) and on USP20 zf-UBP domain (setting [2]) were 40.6 µM and roughly 162 µM, respectively.
Take EKVKRRLDLDID [CCP110_582-593]: the Kd at USP33 zf-UBP domain (read-out: KD, USP33 zf-UBP) is greater than 250 µM; at USP20 zf-UBP domain (read-out: KD, USP20 zf-UBP) it was greater than 500 µM.
